Reference: patent publication US9920069B2, “Compounds for treatment of fluoroquinolone-resistant bacteria” (The Board of Trustees of the University of Illinois, priority 2014, dated 2018)
Values after ≈ are worked out from the molar mass of the structure shown. Marks after values point to notes of the source that are not given here.

How the values were obtained:
[1] = tested on: MRSA clinical isolate SAU.3017
Procedure: (§1) Susceptibility testing was performed in triplicate using the microdilution broth method as outlined by the Clinical and Laboratory Standards Institute CLSI^52. MH broth was used.

[2] = tested on: MRSA clinical isolate SAU.3024; experiment: MIC, microdilution broth; assay type: cell-based, S. aureus; details: Staphylococcus aureus
Procedure: as §1

[3] = tested on: MRSA clinical isolate SAU.42; experiment: MIC, microdilution broth; assay type: cell-based, S. aureus; details: Staphylococcus aureus
Procedure: as §1

[4] = tested on: MRSA clinical isolate SAU.2996; experiment: MIC, microdilution broth; assay type: cell-based, S. aureus
Procedure: as §1

[5] = tested on: MRSA clinical isolate SAU.846; experiment: MIC, microdilution broth; assay type: cell-based, S. aureus
Procedure: as §1

[6] = tested on: MRSA clinical isolate SAU.555; experiment: MIC, microdilution broth; assay type: cell-based, S. aureus; details: Staphylococcus aureus
Procedure: as §1

[7] = tested on: MRSA clinical isolate SAU.669; experiment: MIC, microdilution broth; assay type: cell-based, S. aureus; details: Staphylococcus aureus
Procedure: as §1

[8] = tested on: MRSA clinical isolate SAU.1118; experiment: MIC, microdilution broth; assay type: cell-based, S. aureus; details: Staphylococcus aureus
Procedure: as §1

[9] = tested on: MRSA clinical isolate SAU.419; experiment: MIC, microdilution broth; assay type: cell-based, S. aureus
Procedure: as §1

[10] = tested on: MRSA clinical isolate SAU.447; experiment: MIC, microdilution broth; assay type: cell-based, S. aureus; details: Staphylococcus aureus
Procedure: as §1

[11] = tested on: MRSA clinical isolate SAU.3021; experiment: MIC, microdilution broth; assay type: cell-based, S. aureus
Procedure: as §1

[12] = tested on: MRSA clinical isolate SAU.3026; experiment: MIC, microdilution broth; assay type: cell-based, S. aureus
Procedure: as §1

[13] = tested on: MRSA clinical isolate SAU.446; experiment: MIC, microdilution broth; assay type: cell-based, S. aureus; details: Staphylococcus aureus
Procedure: as §1

[14] = tested on: MRSA clinical isolate SAU.3025; experiment: MIC, microdilution broth; assay type: cell-based, S. aureus; details: Staphylococcus aureus
Procedure: as §1

[15] = tested on: MRSA clinical isolate SAU.495; experiment: microbe, parasite or virus in culture; assay type: cell-based, S. aureus; details: Staphylococcus aureus, read-out: MIC
Procedure: as §1

[16] = tested on: MRSA clinical isolate SAU.493; experiment: microbe, parasite or virus in culture; assay type: cell-based, S. aureus; details: Staphylococcus aureus, read-out: MIC
Procedure: as §1

[17] = tested on: MRSA clinical isolate SAU.710; experiment: microbe, parasite or virus in culture; assay type: cell-based, S. aureus; details: Staphylococcus aureus, read-out: MIC
Procedure: as §1

[18] = tested on: MRSA clinical isolate SAU.492; experiment: microbe, parasite or virus in culture; assay type: cell-based, S. aureus; details: Staphylococcus aureus, read-out: MIC
Procedure: as §1

[19] = tested on: MRSA clinical isolate SAU.494; experiment: microbe, parasite or virus in culture; assay type: cell-based, S. aureus; details: Staphylococcus aureus, read-out: MIC
Procedure: as §1

[20] = tested on: MRSA clinical isolate SAU.489; experiment: microbe, parasite or virus in culture; assay type: cell-based, S. aureus; details: Staphylococcus aureus, read-out: MIC
Procedure: as §1

[21] = tested on: MRSA clinical isolate SAU.709; experiment: microbe, parasite or virus in culture; assay type: cell-based, S. aureus; details: Staphylococcus aureus, read-out: MIC
Procedure: as §1

[22] = tested on: MRSA clinical isolate SAU.496; experiment: microbe, parasite or virus in culture; assay type: cell-based, S. aureus; details: Staphylococcus aureus, read-out: MIC
Procedure: as §1

[23] = tested on: MRSA clinical isolate SAU.491; experiment: microbe, parasite or virus in culture; assay type: cell-based, S. aureus; details: Staphylococcus aureus, read-out: MIC
Procedure: as §1

[24] = tested on: A. baumannii KB349; details: starred: previously determined; cited from earlier work
[25] = tested on: A. baumannii KB304; details: starred: previously determined; cited from earlier work
[26] = tested on: Enterococcus ATCC 29212; experiment: organism not typed; assay type: cell-based, E. faecalis
[27] = tested on: low level CIP resistant strains of S. aureus ATCC 29213 (ParC mutation); experiment: microbe, parasite or virus in culture; assay type: cell-based; details: Staphylococcus aureus, ATCC29213
[28] = tested on: Enterococcus ATCC 19433; experiment: organism not typed; assay type: cell-based, E. faecalis

CC1(C)S[C@@H]2[C@H](NC(=O)[C@H](N)c3ccccc3)C(=O)N2[C@H]1C(=O)O [Amp, Ampicillin, reference compound]
MIC [1]: >64 µg/mL
MIC [2]: > 64 µg/mL
MIC [3]: 2 µg/mL (≈ 5.72 µM)
MIC [4]: >64 µg/mL
MIC [5]: >64 µg/mL
MIC [6]: > 64 µg/mL
MIC [7]: > 64 µg/mL
MIC [8]: > 64 µg/mL
MIC [9]: >64 µg/mL
MIC [10]: > 64 µg/mL
MIC [11]: >64 µg/mL
MIC [12]: >64 µg/mL
MIC [13]: > 64 µg/mL
MIC [14]: 64 µg/mL (≈ 183 µM)
MIC [15]: > 64 µg/mL
MIC [16]: > 64 µg/mL
MIC [17]: > 64 µg/mL
MIC [18]: > 64 µg/mL
MIC [19]: > 64 µg/mL
MIC [20]: > 64 µg/mL
MIC [21]: > 64 µg/mL
MIC [22]: > 64 µg/mL
MIC [23]: > 64 µg/mL

O=C(O)c1cn(C2CC2)c2cc(N3CCNCC3)c(F)cc2c1=O [CIP, ciprofloxacin, reference compound]
CIP MIC [24]: >32* μg mL^−1
CIP MIC [25]: 24* ^ μg mL^−1
MIC [26]: 0.5 to 2 µg/mL (≈ 1.51 to 6.04 µM)
CIP (S/I/R) ([26]; ATCC 29212): S (sensitive (S) if it had an MIC≤4 μg mL^−1)
MIC [27]: 4 to 8 µg/mL (≈ 12.1 to 24.1 µM)
MIC [28]: 2 µg/mL (≈ 6.04 µM)
CIP (S/I/R) ([28]; ATCC 19433): S (sensitive (S) if it had an MIC≤4 μg mL^−1)
